pKi: −log10 of the molar value.
Columns and labels:
Chymotrypsinogen B [1] = target: T1, Chymotrypsinogen B (Homo sapiens, UniProt P17538)
Description: (§1) Rate constant against alpha-chymotrypsin

Chymotrypsinogen B [2] = target: T1, Chymotrypsinogen B; remark: listed apart in the source
Description: as §1

Chymotrypsinogen B [3] = target: T1, Chymotrypsinogen B; remark: listed apart in the source
Description: Rate constant against alpha-chymotrypsin from time dependent inhibition and reactivation data

Chymotrypsinogen B [4] = target: T1, Chymotrypsinogen B; assay: Inhibition constant against alpha-chymotrypsin
Chymotrypsinogen B [5] = target: T1, Chymotrypsinogen B; remark: listed apart in the source
Description: Rate constant against Alpha-chymotrypsin from time dependent inhibition and reactivation data

Chymotrypsinogen B [6] = target: T1, Chymotrypsinogen B; assay: Inhibition constant against Alpha-chymotrypsin inhibitor was determined

T1 sequence (P17538 34-164 limits assumed, other chains not shown): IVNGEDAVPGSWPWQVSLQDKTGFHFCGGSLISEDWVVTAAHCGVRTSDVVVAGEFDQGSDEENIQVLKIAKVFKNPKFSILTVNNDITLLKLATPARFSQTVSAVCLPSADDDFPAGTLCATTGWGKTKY
T1 sequence (P17538 167-263 limits assumed, other chains not shown): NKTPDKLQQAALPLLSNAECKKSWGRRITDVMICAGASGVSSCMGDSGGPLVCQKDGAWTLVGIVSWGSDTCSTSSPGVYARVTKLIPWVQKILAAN

`O=C1C(=O)N(C(=O)OCc2ccccc2)c2ccccc21` gave a k off (Chymotrypsinogen B [1]) of 0.00095 s⁻¹, a k on (Chymotrypsinogen B [2]) of 254 M⁻¹ s⁻¹ and a k off (Chymotrypsinogen B [3]) of 4.01e-05 s⁻¹. The pKi (Chymotrypsinogen B [4]) was 5.42 and the k on (Chymotrypsinogen B [5]) was 7.63 M⁻¹ s⁻¹.

For `CC(C)(C)OC(=O)N1C(=O)C(=O)c2ccccc21`, the pKi (Chymotrypsinogen B [6]) was < 2.70.
